Test results taken from US12091426B2, “Bifunctional degraders of hematopoietic progenitor kinase and therapeutic uses thereof” (Nurix Therapeutics, Inc., priority 2021, dated 2024).

Molecular target: T1, HPK1 (Homo sapiens, UniProt Q92918)
T1 construct: A HiBiT tag was introduced by CRISPR on the N terminus of HPK1 in Jurkat cells; host or cells: Jurkat cells (ATCC TIB-152), monoclonal line with CRISPR knock-in of HiBiT at the endogenous HPK1 locus
Assay: HPK1 Cellular HiBit Degradation Assay
Type: cell-based
Details: HiBiT HPK1 Jurkat cells, 24 hrs; for DC50: concentration at which 50% of HPK1 was remaining, read-out: DC50 Category; for Dmax: Jurkat, read-out: Dmax Category
In short: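 Degraders are dosed in an 11-point series (10 uM to 0.1 nM final) onto Jurkat cells carrying an N-terminal HiBiT tag on endogenous HPK1. After 24 hrs at 37° C, lysis-based HiBiT luminescence quantifies remaining HPK1 relative to vehicle, and curve fitting gives DC50 and Dmax.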

[1] = maximum degradation vs DMSO vehicle control

T1 sequence (Q92918 whole entry): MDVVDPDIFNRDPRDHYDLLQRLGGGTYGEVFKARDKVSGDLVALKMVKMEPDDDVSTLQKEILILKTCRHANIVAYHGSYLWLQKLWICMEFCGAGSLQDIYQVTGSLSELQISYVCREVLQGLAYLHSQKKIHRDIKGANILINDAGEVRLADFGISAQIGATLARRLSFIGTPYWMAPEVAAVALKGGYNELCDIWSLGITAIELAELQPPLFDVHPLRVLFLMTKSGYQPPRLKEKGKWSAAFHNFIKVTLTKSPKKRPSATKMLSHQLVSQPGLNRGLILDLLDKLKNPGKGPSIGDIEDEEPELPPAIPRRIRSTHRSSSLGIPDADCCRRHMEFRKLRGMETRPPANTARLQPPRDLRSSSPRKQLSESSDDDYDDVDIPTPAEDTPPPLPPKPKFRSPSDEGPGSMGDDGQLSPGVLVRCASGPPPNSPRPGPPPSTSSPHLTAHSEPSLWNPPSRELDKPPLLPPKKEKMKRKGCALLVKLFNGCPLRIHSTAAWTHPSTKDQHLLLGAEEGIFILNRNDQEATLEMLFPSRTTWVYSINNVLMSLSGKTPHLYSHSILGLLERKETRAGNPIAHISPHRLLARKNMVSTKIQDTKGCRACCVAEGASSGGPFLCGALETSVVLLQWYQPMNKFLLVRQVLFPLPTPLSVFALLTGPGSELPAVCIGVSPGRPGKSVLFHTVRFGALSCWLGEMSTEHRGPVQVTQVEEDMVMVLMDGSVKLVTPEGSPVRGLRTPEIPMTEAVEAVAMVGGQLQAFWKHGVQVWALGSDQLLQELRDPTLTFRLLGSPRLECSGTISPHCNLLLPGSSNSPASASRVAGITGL

Row | SMILES | DC50 | Dmax [1] | Dmax Category [1]
1 | CC(C)n1cnc2cc(-c3ccc4c(c3)N([C@H]3C[C@@H](N5CCCCC5)C3)C(=O)C43CCN(C(=O)C4CCN(CCC5CCN(c6ccc(C7CCC(=O)NC7=O)cn6)CC5)CC4)CC3)nc(Nc3ccccc3F)c21 (mixture of isomers) [Example 98, (3RS)-3-{6-[4-(2-{4-[(6-{4-[(2-fluorophenyl)amino]-3-(propan-2-yl)-3H-imidazo[4,5-c]pyridin-6-yl}-2-oxo-1-[(1S,3S)-3-(piperidin-1-yl)cyclobutyl]-1,2-dihydrospiro[indole-3,4′-piperidin]-1′-yl)carbonyl]piperidin-1-yl}ethyl)piperidin-1-yl]pyridin-3-yl}piperidine-2,6-dione] | 500 to 1000 nM | > 85% | 
2 | CC(C)n1cnc2cc(-c3ccc4c(c3)N(C3CC(N5CCCCC5)C3)C(=O)C43CCN(C(=O)C4(C)CCN(C(=O)C5(C)CCN(c6ccc(C7CCC(=O)NC7=O)cn6)CC5)CC4)CC3)nc(NC3CC3)c21 (racemic) [Example 151, (3RS)-3-(6-{4-[4-({6-[4-(cyclopropylamino)-3-isopropylimidazo[4,5-c]pyridin-6-yl]-2-oxo-1-[(1S,3S)-3-(piperidin-1-yl)cyclobutyl]spiro[indole-3,4′-piperidin]-1′-yl}carbonyl)-4-methylpiperidine-1-carbonyl]-4-methylpiperidin-1-yl}pyridin-3-yl)piperidine-2,6-dione] | < 100 nM |  | B (B: >70%-<85%)
3 | Cc1cc(N2CCC(C(=O)N3CCC(C)(C(=O)N4CCC5(CC4)C(=O)N([C@H]4C[C@@H](N6CCCCC6)C4)c4cc(-c6cc7ncn(C(C)C)c7c(NC7CC7)n6)ccc45)CC3)CC2)ncc1C1CCC(=O)NC1=O (mixture of isomers) [Example 189, (3RS)-3-(6-{4-[4-({6-[4-(cyclopropylamino)-3-isopropylimidazo[4,5-c]pyridin-6-yl]-2-oxo-1-[(1S,3S)-3-(piperidin-1-yl)cyclobutyl]spiro[indole-3,4′-piperidin]-1′-yl}carbonyl)-4-methylpiperidine-1-carbonyl]piperidin-1-yl}-4-Methylpyridin-3-yl)piperidine-2,6-dione] | < 100 nM | 70 to 85% | 
4 | Cc1cc(F)c(Nc2nc(-c3ccc4c(c3)N([C@H]3C[C@@H](N5CCCCC5)C3)C(=O)C43CCN(C(=O)C4CCN(CC5CCN(c6cccc7c6n(C)c(=O)n7C6CCC(=O)NC6=O)CC5)CC4)CC3)cc3ncn(C(C)C)c23)cc1C(=O)NC(C)C (mixture of isomers) [Example 142, 5-{[6-(1′-{1-[(1-{1-[(3RS)-2,6-dioxopiperidin-3-yl]-3-methyl-2-oxo-2,3-dihydro-1H-1,3-benzodiazol-4-yl}piperidin-4-yl)methyl]piperidine-4-carbonyl}-2-oxo-1-[(1S,3S)-3-(piperidin-1-yl)cyclobutyl]-1,2-dihydrospiro[indole-3,4′-piperidin]-6-yl)-3-(propan-2-yl)-3H-imidazo[4,5-c]pyridin-4-yl]amino}-4-fluoro-2-methyl-N-(propan-2-yl)benzamide] | 500 to 1000 nM | 70 to 85% | 
5 | CC(C)n1cnc2cc(-c3ccc4c(c3)N([C@H]3C[C@@H](N5CCCCC5)C3)C(=O)C43CCN(C(=O)C4CCN(C(=O)C5CCN(c6ccc(C7CCC(=O)NC7=O)cc6)CC5)CC4)CC3)nc(NC3CC3)c21 (stereo partly drawn) [Example 66, 3-(4-(4-(4-(6-(4-(cyclopropylamino)-3-isopropyl-3H-imidazo[4,5-c]pyridin-6-yl)-2-oxo-1-((1S,3S)-3-(piperidin-1-yl)cyclobutyl)spiro[indoline-3,4′-piperidine]-1′-carbonyl)piperidine-1-carbonyl)piperidin-1-yl)phenyl)piperidine-2,6-dione] | < 100 nM | 70 to 85% | 
6 | CC(C)n1cnc2cc(-c3ccc4c(c3)N([C@H]3C[C@@H](N5CCCCC5)C3)C(=O)C43CCN(C(=O)[C@]4(C)CCN(C(=O)[C@H]5CC[C@H](Oc6ccc(C7CCC(=O)NC7=O)cn6)CC5)C4)CC3)nc(NC3CC3)c21 (stereo partly drawn) [Example 163, 3-(6-(((1R,4R)-4-((R)-3-(6-(4-(cyclopropylamino)-3-isopropyl-3H-imidazo[4,5-c]pyridin-6-yl)-2-oxo-1-((1S,3S)-3-(piperidin-1-yl)cyclobutyl)spiro[indoline-3,4′-piperidine]-1′-carbonyl)-3-methylpyrrolidine-1-carbonyl)cyclohexyl)oxy)pyridin-3-yl)piperidine-2,6-dione] | 100 to 500 nM | > 85% | 

The next lines start with results.

Row | DC50 | Dmax [1] | SMILES | Dmax Category [1]
7 | < 100 nM | > 85% | CC(C)n1cnc2cc(-c3ccc4c(c3)N([C@H]3C[C@@H](N5CCCCC5)C3)C(=O)C43CCN(C(=O)[C@@H]4CCN(C(=O)[C@H]5CC[C@H](Oc6ccc(N7CCC(=O)NC7=O)cn6)CC5)C4)CC3)nc(Nc3ccccc3F)c21 [Example 21, 1-(6-{[(1R,4R)-4-[(3R)-3-[(6-{4-[(2-fluorophenyl)amino]-3-(propan-2-yl)-3H-imidazo[4,5-c]pyridin-6-yl}-2-oxo-1-[(1S,3S)-3-(piperidin-1-yl)cyclobutyl]-1,2-dihydrospiro[indole-3,4′-piperidin]-1′-yl)carbonyl]pyrrolidine-1-carbonyl]cyclohexyl]oxy}pyridin-3-yl)-1,3-diazinane-2,4-dione] | 
8 | < 100 nM | 70 to 85% | CC(C)n1cnc2cc(-c3ccc4c(c3)N([C@H]3C[C@@H](N5CCCCC5)C3)C(=O)C43CCN(C(=O)[C@@H]4CCN(C(=O)C5CCN(c6ccc(C7CCC(=O)NC7=O)cn6)CC5)[C@H](C)C4)CC3)nc(NC3CC3)c21 (mixture of isomers) [Example 245, (3RS)-3-(6-{4-[(2R,4R)-4-({6-[4-(cyclopropylamino)-3-(propan-2-yl)-3H-imidazo[4,5-c]pyridin-6-yl]-2-oxo-1-[(1S,3S)-3-(piperidin-1-yl)cyclobutyl]-1,2-dihydrospiro[indole-3,4′-piperidin]-1′-yl}carbonyl)-2-methylpiperidine-1-carbonyl]piperidin-1-yl}pyridin-3-yl)piperidine-2,6-dione] | 
9 | < 100 nM | 70 to 85% | CC(C)n1cnc2cc(-c3ccc4c(c3)N([C@H]3C[C@@H](N5CCCCC5)C3)C(=O)C43CCN(C(=O)[C@@H]4CCN(C(=O)C5CCN(c6ncc(C7CCC(=O)NC7=O)cn6)CC5)C4)CC3)nc(Nc3ccccc3F)c21 (stereo partly drawn) [Example 158, 3-(2-(4-((R)-3-(6-(4-((2-fluorophenyl)amino)-3-isopropyl-3H-imidazo[4,5-c]pyridin-6-yl)-2-oxo-1-((1S,3S)-3-(piperidin-1-yl)cyclobutyl)spiro[indoline-3,4′-piperidine]-1′-carbonyl)pyrrolidine-1-carbonyl)piperidin-1-yl)pyrimidin-5-yl)piperidine-2,6-dione] | 
10 | < 100 nM | 70 to 85% | CC(C)n1cnc2cc(-c3ccc4c(c3)N([C@H]3C[C@@H](N5CCCCC5)C3)C(=O)C43CCN(C(=O)CN4CCC(OCC#Cc5cccc6c5n(C)c(=O)n6C5CCC(=O)NC5=O)CC4)CC3)nc(NC3CC3)c21 (mixture of isomers) [Example 229, (3RS)-3-[4-(3-{[1-(2-{6-[4-(cyclopropylamino)-3-(propan-2-yl)-3H-imidazo[4,5-c]pyridin-6-yl]-2-oxo-1-[(1S,3S)-3-(piperidin-1-yl)cyclobutyl]-1,2-dihydrospiro[indole-3,4′-piperidin]-1′-yl}-2-oxoethyl)piperidin-4-yl]oxy}prop-1-yn-1-yl)-3-methyl-2-oxo-2,3-dihydro-1H-1,3-benzodiazol-1-yl]piperidine-2,6-dione] | 
